# Assay results published in ChEMBL document CHEMBL5223073, “Andrographolide suppresses cisplatin-induced endothelial hyperpermeability through activation of PI3K/Akt and eNOS -derived nitric oxide” (Bioorg Med Chem, 2020).
# Activity calls are given as the source filed them. The calls are words filed in the database; no cut-off is given here.
# Columns and labels:
# HUVEC [1] = test: Inhibition of cisplatin-induced TRPC1 phosphorylation in [32P] orthophosphate labeled HUVEC cells at 30 uM incubated for 15 mins in presence of cisplatin by Western blot analysis; type: cell-based; details: Homo sapiens
# HUVEC [2] = test: Improvement in cisplatin-induced endothelial monolayer integrity in HUVEC cells assessed as increase in transendothelial electric resistance at 30 uM preincubated with compound in presence of eNOS inhibitor, N(G)-nitro-L-arginine methyl ester followed by cisplatin stimulation and measured after 45 mins; type: functional, cell-based; details: Homo sapiens
# HUVEC [3] = test: Improvement in cisplatin-induced endothelial monolayer integrity in HUVEC cells assessed as reduction in transmembrane movement of albumin at 30 uM preincubated with compound followed by cisplatin stimulation and measured after 2 hrs; type: functional, cell-based; details: Homo sapiens
# HUVEC [4] = test: Inhibition of cisplatin-induced TRPC1 phosphorylation in [32P] orthophosphate labeled HUVEC cells at 30 uM incubated for 15 mins in presence of cisplatin and PI3K inhibitor, wortmannin by Western blot analysis; type: cell-based; details: Homo sapiens
# HUVEC [5] = test: Induction of NO production in cisplatin-treated HUVEC cells assessed as increase in fluorescence signal at 30 uM measured after 4 to 15 mins by DAF-FM dye based analysis; type: functional, cell-based; details: Homo sapiens, time 4-15 min
# [6] = target: Transcription factor p65 (Homo sapiens) (UniProt Q04206); test: Inhibition of cisplatin-induced phosphorylation of p65 subunit at Ser536 residue in HUVEC cells at 30 uM preincubated with eNOS inhibitor, N(G)-nitro-L-arginine methyl ester followed by compound addition and further incubated for 1 hr by Western blot analysis; type: cell-based
# HUVEC [7] = test: Inhibition of cisplatin-induced store operated Ca2+ release in HUVEC cells at 30 uM preincubated with compound followed by cisplatin stimulation by Fura-2 AM staining based calcium influx assay; type: functional, cell-based; details: Homo sapiens
# [8] = target: T1, Nitric oxide synthase 3 (Homo sapiens) (UniProt P29474); test: Activation of eNOS activity in cisplatin-treated HUVEC cells assessed as increase in eNOS phosphorylation at Ser1177 residue at 30 uM measured after 5 to 60 mins by Western blot analysis; type: cell-based; details: filed as activator, time 5-60 min
# T1 sequence (whole entry): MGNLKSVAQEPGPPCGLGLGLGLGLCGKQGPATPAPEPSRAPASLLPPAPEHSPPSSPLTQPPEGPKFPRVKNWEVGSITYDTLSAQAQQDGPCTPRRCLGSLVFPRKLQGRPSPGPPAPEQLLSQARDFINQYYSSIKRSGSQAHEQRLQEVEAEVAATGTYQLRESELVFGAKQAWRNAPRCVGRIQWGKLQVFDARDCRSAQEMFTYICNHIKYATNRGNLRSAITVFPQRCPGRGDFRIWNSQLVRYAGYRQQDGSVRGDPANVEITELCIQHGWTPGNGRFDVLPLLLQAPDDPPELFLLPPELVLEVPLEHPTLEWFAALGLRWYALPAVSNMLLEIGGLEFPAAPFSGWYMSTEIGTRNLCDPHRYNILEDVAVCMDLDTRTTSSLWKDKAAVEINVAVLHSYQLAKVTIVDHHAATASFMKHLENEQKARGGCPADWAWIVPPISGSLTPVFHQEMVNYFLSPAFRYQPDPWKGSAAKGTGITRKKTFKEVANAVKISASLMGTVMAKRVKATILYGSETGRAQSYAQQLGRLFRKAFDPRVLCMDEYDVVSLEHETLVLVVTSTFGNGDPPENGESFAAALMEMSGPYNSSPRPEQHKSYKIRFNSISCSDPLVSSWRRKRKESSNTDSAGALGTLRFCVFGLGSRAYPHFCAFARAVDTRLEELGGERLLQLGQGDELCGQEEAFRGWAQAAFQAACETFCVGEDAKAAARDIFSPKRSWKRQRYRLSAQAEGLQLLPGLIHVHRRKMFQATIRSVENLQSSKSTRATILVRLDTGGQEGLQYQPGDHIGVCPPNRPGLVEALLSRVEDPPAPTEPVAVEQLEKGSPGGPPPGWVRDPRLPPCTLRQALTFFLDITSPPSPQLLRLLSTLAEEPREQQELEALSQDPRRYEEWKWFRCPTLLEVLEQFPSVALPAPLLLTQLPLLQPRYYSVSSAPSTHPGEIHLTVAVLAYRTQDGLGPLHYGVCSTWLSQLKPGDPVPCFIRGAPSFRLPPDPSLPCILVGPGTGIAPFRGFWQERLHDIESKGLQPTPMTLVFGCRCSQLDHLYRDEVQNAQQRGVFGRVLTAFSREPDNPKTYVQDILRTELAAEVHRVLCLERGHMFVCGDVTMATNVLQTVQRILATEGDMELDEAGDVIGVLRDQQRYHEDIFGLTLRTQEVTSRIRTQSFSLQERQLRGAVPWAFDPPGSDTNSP
# HUVEC [9] = test: Activation of PI3K in cisplatin-treated HUVEC cells assessed as increase PIP3 formation at 30 uM pretreated for 30 mins in presence of PI3K inhibitor, wortmannin followed by cisplatin addition by immunoprecipitation analysis; type: cell-based; details: Homo sapiens
# HUVEC [10] = test: Downregulation of cisplatin-induced PKCalpha translocation in HUVEC cells at 30 uM incubated for 15 mins in presence of cisplatin and eNOS inhibitor, N(G)-nitro-L-arginine methyl ester by Western blot analysis; type: functional, cell-based; details: Homo sapiens
# HUVEC [11] = test: Inhibition of cisplatin-induced PKCalpha translocation in HUVEC cells assessed as reduction in membrane PKCalpha activity at 30 uM incubated for 15 mins in presence of cisplatin by Western blot analysis; type: functional, cell-based; details: Homo sapiens
# [12] = target: T1, Nitric oxide synthase 3 (Homo sapiens); test: Activation of eNOS activity in cisplatin-treated HUVEC cells assessed as increase in eNOS phosphorylation at Ser1177 residue at 30 uM preincubated with PI3K inhibitor, wortmannin followed by compound addition measured after 5 to 240 mins by Western blot analysis; type: cell-based; details: time 5-240 min
# [13] = target: T2, NF-kappa-B inhibitor alpha (Homo sapiens) (UniProt P25963); test: Inhibition of cisplatin-induced phosphorylation of IkappaBalpha at Ser32/36 residue in HUVEC cells at 30 uM preincubated with PI3K inhibitor, wortmannin followed by compound addition and further incubated for 1 hr by Western blot analysis; type: cell-based
# T2 sequence (whole entry): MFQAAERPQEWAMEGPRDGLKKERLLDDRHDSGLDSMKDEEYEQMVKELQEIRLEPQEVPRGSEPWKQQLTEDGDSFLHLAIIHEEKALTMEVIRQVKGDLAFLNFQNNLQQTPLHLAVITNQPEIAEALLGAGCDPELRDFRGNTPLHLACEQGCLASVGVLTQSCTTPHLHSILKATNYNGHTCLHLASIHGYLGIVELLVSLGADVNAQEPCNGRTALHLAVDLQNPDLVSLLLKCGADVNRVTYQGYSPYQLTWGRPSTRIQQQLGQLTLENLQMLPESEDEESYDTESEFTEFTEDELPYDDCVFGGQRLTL
# HUVEC [14] = test: Induction of NO production in cisplatin-treated HUVEC cells assessed as increase in fluorescence signal at 30 uM preincubated with eNOS inhibitor, N(G)-nitro-L-arginine methyl ester for 3 hrs followed by compound addition and measured immediately by DAF-FM dye based analysis; type: functional, cell-based; details: Homo sapiens
# U-937 = test: Cytotoxicity against human U-937 cells assessed as reduction in cell viability at <=30 uM measured after 24 hrs by MTT assay; type: toxicity, cell-based; details: u-937, 24 h
# HUVEC [15] = test: Downregulation of cisplatin-induced ICAM1 protein expression in HUVEC cells at 100 uM incubated for 1 hr by Western blot analysis; type: functional, cell-based; details: Homo sapiens
# Sequence of Transcription factor p65 (Homo sapiens) (Q04206 whole entry): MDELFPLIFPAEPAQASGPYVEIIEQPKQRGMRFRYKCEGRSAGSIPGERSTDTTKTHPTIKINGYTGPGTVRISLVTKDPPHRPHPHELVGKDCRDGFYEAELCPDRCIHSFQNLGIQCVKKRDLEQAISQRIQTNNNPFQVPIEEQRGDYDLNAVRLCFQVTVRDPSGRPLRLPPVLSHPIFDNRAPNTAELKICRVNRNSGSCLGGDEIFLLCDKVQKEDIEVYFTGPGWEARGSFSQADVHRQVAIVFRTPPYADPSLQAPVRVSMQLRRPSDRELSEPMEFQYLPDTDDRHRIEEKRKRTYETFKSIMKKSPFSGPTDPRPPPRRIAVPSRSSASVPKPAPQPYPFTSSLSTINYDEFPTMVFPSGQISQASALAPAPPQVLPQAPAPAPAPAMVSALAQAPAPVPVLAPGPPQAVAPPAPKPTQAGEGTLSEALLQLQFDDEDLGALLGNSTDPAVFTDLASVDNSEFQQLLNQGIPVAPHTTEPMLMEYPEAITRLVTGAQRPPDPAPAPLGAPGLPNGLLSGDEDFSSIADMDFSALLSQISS
smiles,measurement,setting,value
C=C1CC[C@@H]2[C@](C)(CO)[C@H](O)CC[C@@]2(C)[C@@H]1C/C=C1/C(=O)OC[C@H]1O [ANDROGRAPHOLIDE],inhibition,HUVEC [1],Active
same,Activity,HUVEC [2],inactive
same,Activity,HUVEC [3],Active
same,inhibition,HUVEC [4],inactive
same,Activity,HUVEC [5],Active
same,inhibition,[6],inactive
same,inhibition,HUVEC [7],Active
same,Activity,[8],Active
same,Activity,HUVEC [9],inactive
same,Activity,HUVEC [10],inactive
same,inhibition,HUVEC [11],Active
same,Activity,[12],inactive
same,inhibition,[13],inactive
same,Activity,HUVEC [14],inactive
same,Activity,U-937,Non-Toxic
same,Activity,HUVEC [15],Active
